The target in assay [1] is Protein-tyrosine kinase 6 (Homo sapiens) (UniProt Q13882). Description: Inhibition of BRK (unknown origin) assessed as remaining activity at 1 uM by Kinome scan method relative to control.
Assay [2] has as its target T1, MAP/microtubule affinity-regulating kinase 4 (Homo sapiens) (UniProt Q96L34).
T1 sequence (whole entry): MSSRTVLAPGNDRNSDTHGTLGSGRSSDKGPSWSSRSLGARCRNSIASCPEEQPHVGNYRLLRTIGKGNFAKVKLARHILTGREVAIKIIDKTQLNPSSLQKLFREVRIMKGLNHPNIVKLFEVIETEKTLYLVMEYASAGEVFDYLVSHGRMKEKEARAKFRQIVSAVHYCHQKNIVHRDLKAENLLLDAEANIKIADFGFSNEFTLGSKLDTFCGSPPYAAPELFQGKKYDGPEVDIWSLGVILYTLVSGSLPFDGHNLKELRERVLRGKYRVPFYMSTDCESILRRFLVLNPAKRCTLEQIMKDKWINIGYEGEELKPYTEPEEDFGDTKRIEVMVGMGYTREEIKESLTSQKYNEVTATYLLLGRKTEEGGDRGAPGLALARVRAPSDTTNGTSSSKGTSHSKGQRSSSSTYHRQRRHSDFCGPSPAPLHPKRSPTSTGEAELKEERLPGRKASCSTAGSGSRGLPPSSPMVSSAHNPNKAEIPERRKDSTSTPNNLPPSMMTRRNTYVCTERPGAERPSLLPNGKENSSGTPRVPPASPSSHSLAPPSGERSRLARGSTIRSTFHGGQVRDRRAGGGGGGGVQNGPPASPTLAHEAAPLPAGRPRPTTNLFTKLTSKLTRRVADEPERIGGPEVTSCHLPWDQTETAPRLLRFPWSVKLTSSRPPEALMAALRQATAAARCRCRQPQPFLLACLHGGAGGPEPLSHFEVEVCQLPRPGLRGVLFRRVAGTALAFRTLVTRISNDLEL
Description: Inhibition of MARK4 (unknown origin) assessed as remaining activity at 1 uM by Kinome scan method relative to control.

The target of assay [3] is Serine/threonine-protein kinase MARK2 (Homo sapiens) (UniProt Q7KZI7). The experiment in a line: Inhibition of MARK2 (unknown origin) assessed as remaining activity at 1 uM by Kinome scan method relative to control.
Serine/threonine-protein kinase MARK2 (Homo sapiens), sequence (Q7KZI7 whole entry): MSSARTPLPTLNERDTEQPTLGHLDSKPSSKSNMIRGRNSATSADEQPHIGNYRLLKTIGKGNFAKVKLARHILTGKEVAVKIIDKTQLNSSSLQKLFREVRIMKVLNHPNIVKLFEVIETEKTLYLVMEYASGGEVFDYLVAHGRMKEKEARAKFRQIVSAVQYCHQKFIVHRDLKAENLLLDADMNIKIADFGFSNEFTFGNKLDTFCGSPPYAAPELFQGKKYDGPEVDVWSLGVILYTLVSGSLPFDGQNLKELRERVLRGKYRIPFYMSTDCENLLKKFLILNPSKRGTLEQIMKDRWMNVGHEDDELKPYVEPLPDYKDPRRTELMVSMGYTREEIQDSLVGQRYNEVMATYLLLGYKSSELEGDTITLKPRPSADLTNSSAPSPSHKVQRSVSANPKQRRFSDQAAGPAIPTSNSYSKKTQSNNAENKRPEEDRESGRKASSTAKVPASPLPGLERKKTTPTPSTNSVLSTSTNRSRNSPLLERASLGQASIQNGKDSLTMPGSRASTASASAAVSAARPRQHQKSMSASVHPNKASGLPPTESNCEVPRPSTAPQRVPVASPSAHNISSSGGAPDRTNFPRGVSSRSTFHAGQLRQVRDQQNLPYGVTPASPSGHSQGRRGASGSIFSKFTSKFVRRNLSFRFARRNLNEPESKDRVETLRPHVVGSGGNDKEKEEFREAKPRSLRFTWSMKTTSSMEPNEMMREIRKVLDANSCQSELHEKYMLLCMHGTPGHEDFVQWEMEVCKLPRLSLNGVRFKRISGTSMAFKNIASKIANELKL
The target in assay [4] is Serine/threonine-protein kinase/endoribonuclease IRE1 (Homo sapiens) (UniProt O75460). Description: Inhibition of ERN1 (unknown origin) assessed as remaining activity at 1 uM by Kinome scan method relative to control.
Assay [5] deals with Serine/threonine-protein kinase pim-2 (Homo sapiens) (UniProt Q9P1W9). Description: Inhibition of PIM2 (unknown origin) assessed as remaining activity at 1 uM by Kinome scan method relative to control.
Serine/threonine-protein kinase pim-2 (Homo sapiens), sequence (Q9P1W9 whole entry, looked up): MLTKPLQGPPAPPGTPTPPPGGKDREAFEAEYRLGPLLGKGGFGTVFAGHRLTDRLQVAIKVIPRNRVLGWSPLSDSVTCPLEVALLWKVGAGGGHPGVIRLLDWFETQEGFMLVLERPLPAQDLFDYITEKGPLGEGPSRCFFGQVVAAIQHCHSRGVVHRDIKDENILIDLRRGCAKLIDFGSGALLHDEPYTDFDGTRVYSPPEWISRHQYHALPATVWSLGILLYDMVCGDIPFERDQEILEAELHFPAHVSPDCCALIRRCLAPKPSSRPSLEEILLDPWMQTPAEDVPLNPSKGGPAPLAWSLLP
Assay [6] has as its target Myosin light chain kinase 2, skeletal/cardiac muscle (Homo sapiens) (UniProt Q9H1R3). Description: Inhibition of MYLK2 (unknown origin) assessed as remaining activity at 1 uM by Kinome scan method relative to control.
Assay [7] concerns the target Membrane-associated tyrosine- and threonine-specific cdc2-inhibitory kinase (Homo sapiens) (UniProt Q99640). Description: Inhibition of PKMYT1 (unknown origin) assessed as remaining activity at 1 uM by Kinome scan method relative to control.
Assay [8] has as its target Mitogen-activated protein kinase kinase kinase 19 (Homo sapiens) (UniProt Q56UN5). The experiment in a line: Inhibition of YSK4 (unknown origin) assessed as remaining activity at 1 uM by Kinome scan method relative to control.
Assay [9] addresses T2, Calcium/calmodulin-dependent protein kinase type IV (Homo sapiens) (UniProt Q16566).
T2 sequence (whole entry): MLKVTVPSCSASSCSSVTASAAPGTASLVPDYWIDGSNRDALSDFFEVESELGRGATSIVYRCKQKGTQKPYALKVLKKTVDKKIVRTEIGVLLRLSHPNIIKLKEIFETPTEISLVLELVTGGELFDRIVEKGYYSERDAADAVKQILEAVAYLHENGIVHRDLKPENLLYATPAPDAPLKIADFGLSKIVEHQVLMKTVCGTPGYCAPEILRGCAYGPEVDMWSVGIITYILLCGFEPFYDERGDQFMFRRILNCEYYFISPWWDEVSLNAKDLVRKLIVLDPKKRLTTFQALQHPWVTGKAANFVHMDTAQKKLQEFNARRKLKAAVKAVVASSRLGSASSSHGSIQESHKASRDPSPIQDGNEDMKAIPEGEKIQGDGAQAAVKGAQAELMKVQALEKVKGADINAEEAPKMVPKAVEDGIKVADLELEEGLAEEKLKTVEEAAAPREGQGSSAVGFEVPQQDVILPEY
The experiment in a line: Inhibition of CAMK4 (unknown origin) assessed as remaining activity at 1 uM by Kinome scan method relative to control.

The target in assay [10] is Mitogen-activated protein kinase kinase kinase 12 (Homo sapiens) (UniProt Q12852). The experiment in a line: Inhibition of DLK (unknown origin) assessed as remaining activity at 1 uM by Kinome scan method relative to control.
Mitogen-activated protein kinase kinase kinase 12 (Homo sapiens), sequence (Q12852 whole entry): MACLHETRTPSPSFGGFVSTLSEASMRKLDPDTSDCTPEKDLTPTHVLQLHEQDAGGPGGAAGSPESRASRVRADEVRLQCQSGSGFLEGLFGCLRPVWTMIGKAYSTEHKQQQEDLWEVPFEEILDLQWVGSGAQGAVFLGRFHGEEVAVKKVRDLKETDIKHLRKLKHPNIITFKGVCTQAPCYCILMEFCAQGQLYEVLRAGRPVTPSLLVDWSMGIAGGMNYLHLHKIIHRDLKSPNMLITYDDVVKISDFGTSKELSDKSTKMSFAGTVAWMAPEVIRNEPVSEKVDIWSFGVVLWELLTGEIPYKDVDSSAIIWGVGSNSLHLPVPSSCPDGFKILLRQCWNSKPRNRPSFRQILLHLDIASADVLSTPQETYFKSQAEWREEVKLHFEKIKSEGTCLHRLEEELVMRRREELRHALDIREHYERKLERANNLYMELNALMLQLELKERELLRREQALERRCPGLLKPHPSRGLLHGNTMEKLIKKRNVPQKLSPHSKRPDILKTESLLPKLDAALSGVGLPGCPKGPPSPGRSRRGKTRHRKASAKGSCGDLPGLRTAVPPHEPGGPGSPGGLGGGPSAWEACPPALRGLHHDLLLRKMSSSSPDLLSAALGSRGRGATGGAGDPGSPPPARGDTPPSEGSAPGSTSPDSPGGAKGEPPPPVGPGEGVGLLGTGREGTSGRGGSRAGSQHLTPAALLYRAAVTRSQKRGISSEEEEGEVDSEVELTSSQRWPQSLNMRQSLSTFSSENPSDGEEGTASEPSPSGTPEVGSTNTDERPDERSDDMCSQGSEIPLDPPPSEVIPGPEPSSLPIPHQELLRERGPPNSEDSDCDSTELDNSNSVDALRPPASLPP
Assay [11] concerns the target T3, Inhibitor of nuclear factor kappa-B kinase subunit alpha (Homo sapiens) (UniProt O15111).
T3 sequence (whole entry): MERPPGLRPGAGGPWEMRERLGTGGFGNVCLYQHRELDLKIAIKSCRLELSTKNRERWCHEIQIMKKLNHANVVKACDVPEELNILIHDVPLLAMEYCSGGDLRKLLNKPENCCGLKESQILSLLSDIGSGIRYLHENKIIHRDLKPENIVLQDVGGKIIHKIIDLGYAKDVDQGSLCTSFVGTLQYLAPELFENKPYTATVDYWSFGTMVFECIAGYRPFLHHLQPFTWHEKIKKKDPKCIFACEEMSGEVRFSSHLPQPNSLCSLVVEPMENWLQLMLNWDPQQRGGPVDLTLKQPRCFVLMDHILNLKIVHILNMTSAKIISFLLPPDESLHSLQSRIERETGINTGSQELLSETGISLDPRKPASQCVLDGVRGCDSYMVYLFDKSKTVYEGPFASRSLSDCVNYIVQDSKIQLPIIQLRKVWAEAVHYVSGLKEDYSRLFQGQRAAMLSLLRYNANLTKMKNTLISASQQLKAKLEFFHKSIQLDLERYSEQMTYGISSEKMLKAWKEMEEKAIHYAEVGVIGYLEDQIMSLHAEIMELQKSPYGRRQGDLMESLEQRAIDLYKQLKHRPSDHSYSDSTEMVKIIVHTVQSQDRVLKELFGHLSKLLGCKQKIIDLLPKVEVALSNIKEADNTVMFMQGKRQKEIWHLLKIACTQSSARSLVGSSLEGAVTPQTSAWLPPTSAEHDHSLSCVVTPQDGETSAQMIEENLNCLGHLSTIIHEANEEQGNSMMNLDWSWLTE
Description: Inhibition of IKK-alpha (unknown origin) assessed as remaining activity at 1 uM by Kinome scan method relative to control.

Assay [12] concerns the target Maternal embryonic leucine zipper kinase (Homo sapiens) (UniProt Q14680). Description: Inhibition of MELK (unknown origin) assessed as remaining activity at 1 uM by Kinome scan method relative to control.
Assay [13] deals with Serine/threonine-protein kinase DCLK1 (Homo sapiens) (UniProt O15075). The experiment in a line: Inhibition of DCAMKL1 (unknown origin) assessed as remaining activity at 1 uM by Kinome scan method relative to control.
Serine/threonine-protein kinase DCLK1 (Homo sapiens), sequence (O15075 whole entry): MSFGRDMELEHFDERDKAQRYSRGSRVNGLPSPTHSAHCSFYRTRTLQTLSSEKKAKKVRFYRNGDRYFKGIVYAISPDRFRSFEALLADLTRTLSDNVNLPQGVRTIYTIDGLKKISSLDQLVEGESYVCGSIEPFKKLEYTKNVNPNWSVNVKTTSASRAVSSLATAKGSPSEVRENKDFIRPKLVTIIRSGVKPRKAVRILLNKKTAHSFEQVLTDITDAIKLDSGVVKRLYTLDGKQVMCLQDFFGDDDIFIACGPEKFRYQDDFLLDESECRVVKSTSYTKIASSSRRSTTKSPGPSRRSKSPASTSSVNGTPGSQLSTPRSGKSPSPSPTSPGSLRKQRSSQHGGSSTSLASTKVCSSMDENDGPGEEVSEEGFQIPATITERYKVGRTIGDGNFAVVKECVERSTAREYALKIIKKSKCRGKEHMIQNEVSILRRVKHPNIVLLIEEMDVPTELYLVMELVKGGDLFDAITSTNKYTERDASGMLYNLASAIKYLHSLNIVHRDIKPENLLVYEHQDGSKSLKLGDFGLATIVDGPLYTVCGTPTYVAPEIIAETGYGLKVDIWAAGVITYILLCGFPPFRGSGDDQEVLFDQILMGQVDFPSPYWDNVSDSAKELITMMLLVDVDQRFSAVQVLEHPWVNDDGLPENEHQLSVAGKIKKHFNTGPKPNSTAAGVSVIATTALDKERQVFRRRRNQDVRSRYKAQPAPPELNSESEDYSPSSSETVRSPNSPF

Maternal embryonic leucine zipper kinase (Homo sapiens), sequence (Q14680 whole entry, looked up): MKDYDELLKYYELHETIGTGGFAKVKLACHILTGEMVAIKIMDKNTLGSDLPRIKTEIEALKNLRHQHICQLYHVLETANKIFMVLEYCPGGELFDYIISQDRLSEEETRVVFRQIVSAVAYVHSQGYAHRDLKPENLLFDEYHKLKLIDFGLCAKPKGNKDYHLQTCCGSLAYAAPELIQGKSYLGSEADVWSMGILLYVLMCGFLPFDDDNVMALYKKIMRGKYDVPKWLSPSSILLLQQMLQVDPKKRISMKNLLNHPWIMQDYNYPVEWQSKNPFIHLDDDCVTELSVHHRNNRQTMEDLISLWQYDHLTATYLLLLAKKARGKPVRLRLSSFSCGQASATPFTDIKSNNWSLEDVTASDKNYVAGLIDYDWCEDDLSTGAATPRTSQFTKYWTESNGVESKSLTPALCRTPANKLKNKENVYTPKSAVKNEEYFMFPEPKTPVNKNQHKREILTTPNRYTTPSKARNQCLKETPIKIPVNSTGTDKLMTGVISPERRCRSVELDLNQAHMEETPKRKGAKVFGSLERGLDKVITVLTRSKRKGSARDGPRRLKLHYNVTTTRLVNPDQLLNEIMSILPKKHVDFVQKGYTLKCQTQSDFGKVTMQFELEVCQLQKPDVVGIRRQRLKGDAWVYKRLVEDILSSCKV
Protein-tyrosine kinase 6 (Homo sapiens), sequence (Q13882 whole entry, looked up): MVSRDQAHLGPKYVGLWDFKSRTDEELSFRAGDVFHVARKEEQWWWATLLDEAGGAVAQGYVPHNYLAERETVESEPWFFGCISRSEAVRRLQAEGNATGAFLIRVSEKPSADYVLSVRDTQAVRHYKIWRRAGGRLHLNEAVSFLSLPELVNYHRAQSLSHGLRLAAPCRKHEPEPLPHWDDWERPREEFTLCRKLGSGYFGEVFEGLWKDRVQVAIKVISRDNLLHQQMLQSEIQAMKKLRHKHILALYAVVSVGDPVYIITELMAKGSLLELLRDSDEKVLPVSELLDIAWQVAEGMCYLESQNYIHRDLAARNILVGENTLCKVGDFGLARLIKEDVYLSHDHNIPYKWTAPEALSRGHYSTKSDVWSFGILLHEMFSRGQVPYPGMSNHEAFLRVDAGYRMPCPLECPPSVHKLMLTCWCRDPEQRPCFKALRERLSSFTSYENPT
Membrane-associated tyrosine- and threonine-specific cdc2-inhibitory kinase (Homo sapiens), sequence (Q99640 whole entry): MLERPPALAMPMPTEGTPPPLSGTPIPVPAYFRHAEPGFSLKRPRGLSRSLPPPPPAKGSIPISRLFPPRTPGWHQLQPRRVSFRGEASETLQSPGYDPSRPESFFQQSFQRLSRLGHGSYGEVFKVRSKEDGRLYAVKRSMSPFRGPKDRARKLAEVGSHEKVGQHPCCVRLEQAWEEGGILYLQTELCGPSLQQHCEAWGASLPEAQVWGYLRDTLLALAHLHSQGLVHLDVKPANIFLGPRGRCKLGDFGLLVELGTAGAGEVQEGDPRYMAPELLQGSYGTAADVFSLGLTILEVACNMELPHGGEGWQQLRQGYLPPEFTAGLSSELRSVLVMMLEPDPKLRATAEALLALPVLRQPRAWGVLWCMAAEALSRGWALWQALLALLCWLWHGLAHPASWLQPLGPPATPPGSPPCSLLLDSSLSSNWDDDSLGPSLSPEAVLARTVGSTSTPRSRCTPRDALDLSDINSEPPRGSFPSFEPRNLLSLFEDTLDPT
Myosin light chain kinase 2, skeletal/cardiac muscle (Homo sapiens), sequence (Q9H1R3 whole entry): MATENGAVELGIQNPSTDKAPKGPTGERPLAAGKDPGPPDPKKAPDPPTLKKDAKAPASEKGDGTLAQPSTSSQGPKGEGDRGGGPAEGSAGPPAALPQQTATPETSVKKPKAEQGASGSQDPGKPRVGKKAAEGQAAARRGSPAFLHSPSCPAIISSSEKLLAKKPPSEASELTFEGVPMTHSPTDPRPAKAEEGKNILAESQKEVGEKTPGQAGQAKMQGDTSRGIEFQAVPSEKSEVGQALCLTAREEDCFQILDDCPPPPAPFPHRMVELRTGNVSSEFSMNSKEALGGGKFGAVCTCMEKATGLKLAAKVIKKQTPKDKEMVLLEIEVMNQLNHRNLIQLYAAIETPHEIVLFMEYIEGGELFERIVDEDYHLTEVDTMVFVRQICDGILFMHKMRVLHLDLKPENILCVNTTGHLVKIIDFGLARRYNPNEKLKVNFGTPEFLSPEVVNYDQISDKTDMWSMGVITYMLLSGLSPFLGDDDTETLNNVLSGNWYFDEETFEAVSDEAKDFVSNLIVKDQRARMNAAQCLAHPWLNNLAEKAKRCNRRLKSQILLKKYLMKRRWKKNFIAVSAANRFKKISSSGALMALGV

As for `Nc1ccccc1Nc1ccc2c(c1)CCc1ccccc1C2=O`, the Activity is 97% in [1]; 90% in [2]; 72% in assay [3]; 98% in assay [4]; 98% in assay [5]; 87% in assay [6]. Also, the Activity was 64% in assay [7]; 99% in assay [8]; 90% in [9]; 98% in assay [10]; 98% in assay [11]; 86% in assay [12]. The Activity in assay [13] turned out to be 92%.
Turning to `O=C1c2ccc(Nc3ccc(F)cc3F)cc2CCc2ccc(OC[C@H](O)CO)cc21` [Skepinone-L], the Activity in [1] was 98%; in assay [2], 100%; in [3], 97%; in assay [4], 100%; in [5] it was 100%; in assay [6], 90%. The Activity was determined as 85% in assay [7]; 100% in [8]; 90% in assay [9]; 94% in [10]; 100% in [11]; 94% in assay [12]. Further, the Activity in assay [13] was 97%.

For the origin of these results see ChEMBL document CHEMBL5696441 (Nat Chem Biol, 2011).
